# Measured values: patent US8741567B2, “Composition and methods related to modification of 5-hydroxymethylcytosine (5-hmC)” (The University of Chicago, priority 2010, dated 2014)
# What was measured:
# wild-type βGT = wild-type βGT (Enterobacteria phage T4, UniProt P04547)
# Taq polymerase = biological target: T1, Taq polymerase (Thermus aquaticus, UniProt P19821); test: Primer extension assay on 40-mer DNA template; format: biochemical; conditions: streptavidin added (6 eq.-48 eq.), 72° C., 1 min
# T1 construct: purchased Sigma
# From the text: FIGS. 9A-9B. The streptavidin adduct of biotin-5-N3-gmC hinders primer extension. (A) Sequence of 40 mer DNA containing cytosines derivatives used in primer extension. Cytosine 25, counting from right to left, with an asterisk presented the modified cytosines in the sequences, and also the position at which DNA polymerases tended to stall when the streptavidine adduct of biotin-5-N3-gmC-containing DNA was used as template. The arrow corresponded to the reverse PCR primer used for primer extension. (B) Primer extension assays for 40 mer DNA containing different cytosine species, shown beside a Sanger sequencing ladder. […] Position with the most significant stalling was position 24, one base before the modified position, although significant stalling still observed in the modified position (position 25, arrow). Primer extension using Sigma TaqRED polymerase, extension at 72° C. for 1 min. Sequencing ladder was performed with Sequenase from USB.
# The properties of 5-hmC in duplex DNA are quite similar to those of 5-mC in terms of its sensitivity toward enzymatic reactions such as restriction enzyme digestion and polymerization (Flusberg et al., 2010; Josse and Kornberg, 1962; Lariviere and Morera, 2004). In an attempt to develop a method to differentiate these two bases in DNA, primer extension with a biotin-N3-5-gmC-modified DNA template was tested. […]
# MspI [1] = biological target: T2, MspI (Moraxella sp, UniProt P11405); test: MspI digestion of 32-mer dsDNA with C*CGG; conditions: 100 U MspI, 1 hr, 37° C.
# TaqαI = biological target: T3, TaqαI (Thermus aquaticus, UniProt P14386); test: TaqαI digestion of 32-mer dsDNA with T*CGA; conditions: 100 U TaqαI, 1 hr, 65° C.
# T3 sequence (P14386 1-263): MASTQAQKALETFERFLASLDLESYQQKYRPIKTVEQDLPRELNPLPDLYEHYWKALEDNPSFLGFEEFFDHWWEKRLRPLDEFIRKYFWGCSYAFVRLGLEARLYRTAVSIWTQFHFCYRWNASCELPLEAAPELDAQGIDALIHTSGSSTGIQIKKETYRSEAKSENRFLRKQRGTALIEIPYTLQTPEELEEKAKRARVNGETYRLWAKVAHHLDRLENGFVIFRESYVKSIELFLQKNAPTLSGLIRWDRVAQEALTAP
# MspI [2] = biological target: T2, MspI; test: MspI restriction digestion of 40-mer DNA with CC*GG; format: biochemical; conditions: 40-mer duplex DNA
# From the text: FIG. 2. Restriction enzyme digestion assay of a 40 mer DNA with CC*GG (where C*=C, 5-meC, 5-hmC, or 5-gmC).
# The inventors tested a restriction enzyme digestion assay with a 40-mer DNA containing a CC*GG (C*=C, 5-meC, 5-hmC, or 5-gmC) sequence in the middle. […] With bulkier groups on 5-hmC, digestions by other restriction enzymes that recognize DNA sequences containing CpG can be blocked.
# [3] = tested on: four different polymerases; test: Primer extension and PCR with 5-gmC-containing DNA; format: biochemical
# From the text: The inventors synthesized the phosphoramidite of 5-hmC (now commercially available from Glen Research) and prepared duplex DNA with 5-hmC incorporated at specific locations.
# HpaII = HpaII (Haemophilus parainfluenzae, UniProt P36433); format: biochemical; conditions: 40-mer DNA
# HpaII, sequence (P36433 whole entry, looked up): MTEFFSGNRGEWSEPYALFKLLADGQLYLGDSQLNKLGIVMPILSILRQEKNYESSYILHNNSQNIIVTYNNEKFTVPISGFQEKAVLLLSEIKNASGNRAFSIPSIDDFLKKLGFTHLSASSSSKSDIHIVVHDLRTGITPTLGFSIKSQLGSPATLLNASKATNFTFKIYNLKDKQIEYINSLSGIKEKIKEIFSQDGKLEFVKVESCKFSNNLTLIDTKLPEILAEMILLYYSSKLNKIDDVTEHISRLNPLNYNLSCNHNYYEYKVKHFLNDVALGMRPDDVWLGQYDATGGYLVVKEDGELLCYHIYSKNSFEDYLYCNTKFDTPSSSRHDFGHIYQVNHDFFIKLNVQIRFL
# T2 sequence (P11405 whole entry): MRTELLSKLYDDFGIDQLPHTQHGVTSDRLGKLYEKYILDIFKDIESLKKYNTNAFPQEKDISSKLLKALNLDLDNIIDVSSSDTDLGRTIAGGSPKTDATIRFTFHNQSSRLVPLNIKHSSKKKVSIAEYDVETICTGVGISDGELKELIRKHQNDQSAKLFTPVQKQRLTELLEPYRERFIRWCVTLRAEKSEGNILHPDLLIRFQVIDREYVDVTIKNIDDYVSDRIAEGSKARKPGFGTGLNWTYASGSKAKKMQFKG
# wild-type βGT, sequence (P04547 with tags, fused parts or gaps): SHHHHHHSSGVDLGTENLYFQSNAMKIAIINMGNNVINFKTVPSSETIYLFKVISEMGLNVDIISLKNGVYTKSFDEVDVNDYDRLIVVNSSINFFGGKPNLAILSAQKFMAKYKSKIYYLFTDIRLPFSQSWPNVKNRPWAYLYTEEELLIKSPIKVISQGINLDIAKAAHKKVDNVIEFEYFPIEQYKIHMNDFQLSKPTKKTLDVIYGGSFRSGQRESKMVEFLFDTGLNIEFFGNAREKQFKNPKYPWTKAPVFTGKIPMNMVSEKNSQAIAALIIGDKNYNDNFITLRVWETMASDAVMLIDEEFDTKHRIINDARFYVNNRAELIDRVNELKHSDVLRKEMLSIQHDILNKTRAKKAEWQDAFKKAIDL
# T1 sequence (P19821 whole entry): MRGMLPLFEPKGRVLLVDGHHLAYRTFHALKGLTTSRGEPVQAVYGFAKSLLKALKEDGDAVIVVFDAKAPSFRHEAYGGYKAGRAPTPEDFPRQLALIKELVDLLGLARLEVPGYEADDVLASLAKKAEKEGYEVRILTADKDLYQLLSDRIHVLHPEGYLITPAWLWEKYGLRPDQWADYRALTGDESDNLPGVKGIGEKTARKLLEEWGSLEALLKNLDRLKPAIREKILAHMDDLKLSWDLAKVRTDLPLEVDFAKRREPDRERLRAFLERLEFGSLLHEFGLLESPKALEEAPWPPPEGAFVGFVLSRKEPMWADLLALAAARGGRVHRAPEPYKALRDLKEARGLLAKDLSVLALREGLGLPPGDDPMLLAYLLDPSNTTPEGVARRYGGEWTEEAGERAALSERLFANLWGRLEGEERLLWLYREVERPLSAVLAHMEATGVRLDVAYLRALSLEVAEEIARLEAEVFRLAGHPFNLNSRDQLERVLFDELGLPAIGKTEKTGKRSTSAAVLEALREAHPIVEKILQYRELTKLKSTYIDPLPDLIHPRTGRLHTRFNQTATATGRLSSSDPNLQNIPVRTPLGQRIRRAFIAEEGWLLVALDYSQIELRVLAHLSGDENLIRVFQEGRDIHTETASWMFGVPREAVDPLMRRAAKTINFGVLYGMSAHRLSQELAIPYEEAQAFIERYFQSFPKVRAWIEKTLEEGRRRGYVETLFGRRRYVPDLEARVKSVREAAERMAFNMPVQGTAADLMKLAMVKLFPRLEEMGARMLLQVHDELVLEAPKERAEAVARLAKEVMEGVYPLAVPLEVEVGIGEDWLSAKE
substance,measurement,setting,value
"Uridine 5′-(2,3,4-tri-O-acetyl-6-azido-6-deoxy-α-D-glucopyranosyl)diphosphate bistriethylammonium salt [UDP-6-N3-Glu]",efficiency of transfer to 5-hmC-containing duplex DNA relative to UDP-Glu,wild-type βGT,as efficiently as with UDP-Glu
same,time for 6-N3-glucose transfer reaction to finish,"wild-type βGT; 11-mer duplex DNA with 5-hmC, as low as 1% enzyme concentration",≤ 5 min
β-6-azide-glucosyl-5-hydroxymethyl-cytosine [N3-5-gmC],primer extension on modified template with streptavidin,Taq polymerase,completely stalled
same,"MspI digestion, fully-modified DNA",MspI [1],block MspI digestion completely
same,"MspI digestion, hemi-modified DNA",MspI [1],can be protected from digestion
same,"TaqαI digestion, hemi-modified DNA",TaqαI; hemi-hydroxymethylation,cannot block digestion as well as the fully-modified one
same,"TaqαI digestion, fully-modified DNA",TaqαI; modified on both strands,only partially
β-glucosyl-5-hydroxymethyl-cytosine [5-gmC],MspI cutting of modified CC*GG site,MspI [2],completely blocks
same,MspI cutting of modified CC*GG site,MspI [2]; listed as C(5-gmC)GG,completely blocked
same,interference with polymerization reaction,[3],does not exhibit any interference
same,HpaII cutting of modified CC*GG site,HpaII,does not cut
